This is an account of results in patent US8906904B2, “Alkoxy pyrazoles as soluble guanylate cyclase activators” (Boehringer Ingelheim International GmbH, priority 2012, dated 2014).

This data set can be described thus: Assessment of solubility (McIlvaine buffers, 24 h shake, UPLC-UV). It is filed as physicochemical. The following applies: kinetic from dmso stock. The gist of the method: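 Compounds from 10 mM DMSO stocks were shaken for 24 h at room temperature in McIlvaine buffers at pH 2.2, 4.5 and 6.8 (2.5% v/v DMSO final), then filtered. Filtrates were quantified by UPLC-UV at 254 nm against a 50:50 acetonitrile/water reference assumed fully dissolved, as a single determination.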

Each structure is given as a SMILES string. ≈ marks a conversion by molar mass, not a printed value.

Take `CCOc1c(C(=O)O)cnn1-c1cccc(-c2cccc(Cl)c2OCc2ccc3c(c2)CCN(C2COC2)C3)n1` [Compound 51]: the concentration in solution (pH 2.2, aqueous buffer) (solubility at 24 h) came to 110 µg/mL (≈ 196 µM); the concentration in solution (pH 4.5, aqueous buffer) (solubility at 24 h) came to 83 µg/mL (≈ 148 µM); the concentration in solution (pH 6.8, aqueous buffer) (solubility at 24 h) came to 93 µg/mL (≈ 166 µM).
For `COc1c(C(=O)O)cnn1-c1cccc(-c2cc(F)cc(F)c2OCc2ccc3c(c2)CCN(C2COC2)C3)n1` [Compound 52], in that order: 83 µg/mL (≈ 151 µM), 58 µg/mL (≈ 106 µM) and 73 µg/mL (≈ 133 µM).
On to `COc1c(C(=O)O)cnn1-c1cccc(-c2cc(F)cc(F)c2OCc2ccc3c(c2)CCN(C2CCOCC2)C3)n1` [Compound 53], for which the solubility – broadly, the concentration that dissolves in the medium under given conditions – at 24 h by setting is: (pH 2.2, aqueous buffer) 84 µg/mL (≈ 146 µM); (pH 4.5, aqueous buffer) 65 µg/mL (≈ 113 µM); (pH 6.8, aqueous buffer) 70 µg/mL (≈ 121 µM).
In the same order, the values of `CCOc1c(C(=O)O)cnn1-c1cccc(-c2cccc(Cl)c2OCc2ccc3c(c2)CCN(C2CCOCC2)C3)n1` [Compound 54] are 100 µg/mL (≈ 170 µM), 78 µg/mL (≈ 132 µM) and 75 µg/mL (≈ 127 µM).
In the same order, the values of `CCOc1c(C(=O)O)cnn1-c1cccc(-c2cccc(Cl)c2OCc2ccc3c(c2)CCN(C2CCOC2)C3)n1` (stereo not drawn) [Compound 55] are 98 µg/mL (≈ 170 µM), 48 µg/mL (≈ 83.5 µM) and 49 µg/mL (≈ 85.2 µM).
Consider `CCOc1c(C(=O)O)cnn1-c1cccc(-c2cccc(Cl)c2OCc2ccc3c(c2)CCN(C(C)CO)C3)n1` (stereo not drawn) [Compound 56], for which the solubility at 24 h is, setting by setting: (pH 2.2, aqueous buffer) 87 µg/mL (≈ 155 µM); (pH 4.5, aqueous buffer) 66 µg/mL (≈ 117 µM); (pH 6.8, aqueous buffer) 77 µg/mL (≈ 137 µM).
In the same order, the values of `CCOc1c(C(=O)O)cnn1-c1cccc(-c2cccc(Cl)c2OCc2ccc3c(c2)CCN(C2CCC(F)(F)CC2)C3)n1` [Compound 57] are 95 µg/mL (≈ 152 µM), 47 µg/mL (≈ 75.4 µM) and 51 µg/mL (≈ 81.8 µM).
For `CCOc1c(C(=O)O)cnn1-c1cccc(-c2cccc(Cl)c2OCc2ccc3c(c2)CCN(CCOC)C3)n1` [Compound 58], in that order: 111 µg/mL (≈ 197 µM), 85 µg/mL (≈ 151 µM) and 89 µg/mL (≈ 158 µM).
For `COc1c(C(=O)O)cnn1-c1cccc(-c2cccc(C)c2OCc2ccc3c(c2)CCN(C2CCOC(C)(C)C2)C3)n1` (stereo not drawn) [Compound 61], in that order: 130 µg/mL (≈ 223 µM), 110 µg/mL (≈ 189 µM) and 99 µg/mL (≈ 170 µM).
On to `COc1c(C(=O)O)cnn1-c1cccc(-c2cccc(C)c2OCc2ccc3c(c2)CCN(C2CC(C)OC(C)C2)C3)n1` (stereo not drawn) [Compound 62], for which the solubility at 24 h (pH 2.2, aqueous buffer) came to 110 µg/mL (≈ 189 µM); the concentration in solution (pH 4.5, aqueous buffer) (solubility at 24 h) was 88 µg/mL (≈ 151 µM); the solubility at 24 h (pH 6.8, aqueous buffer) was 91 µg/mL (≈ 156 µM).
For `COc1c(C(=O)O)cnn1-c1cccc(-c2cccc(F)c2OCc2ccc3c(c2)CCN(C2CCOCC2)C3)n1` [Compound 63], in that order: 110 µg/mL (≈ 197 µM), 90 µg/mL (≈ 161 µM) and 92 µg/mL (≈ 165 µM).
As for `CCOc1c(C(=O)O)cnn1-c1cccc(-c2cccc(C)c2OCc2ccc3c(c2)CCN(C2CCOCC2C)C3)n1` (stereo not drawn) [Compound 64], the solubility at 24 h is, setting by setting: (pH 2.2, aqueous buffer) 100 µg/mL (≈ 172 µM); (pH 4.5, aqueous buffer) 66 µg/mL (≈ 113 µM); (pH 6.8, aqueous buffer) 66 µg/mL (≈ 113 µM).
As for `CCOc1c(C(=O)O)cnn1-c1cccc(-c2cccc(C)c2OCc2ccc3c(c2)CCN(C2CC(C)OC(C)C2)C3)n1` (stereo not drawn) [Compound 65], the solubility at 24 h is, setting by setting: (pH 2.2, aqueous buffer) 110 µg/mL (≈ 184 µM); (pH 4.5, aqueous buffer) 84 µg/mL (≈ 141 µM); (pH 6.8, aqueous buffer) 74 µg/mL (≈ 124 µM).
`CCOc1c(C(=O)O)cnn1-c1cccc(-c2cccc(C)c2OCc2ccc3c(c2)CCN(C2CCOC(C)(C)C2)C3)n1` (stereo not drawn) [Compound 66]: the solubility at 24 h is, setting by setting: (pH 2.2, aqueous buffer) 63 µg/mL (≈ 106 µM); (pH 4.5, aqueous buffer) 54 µg/mL (≈ 90.5 µM); (pH 6.8, aqueous buffer) 55 µg/mL (≈ 92.2 µM).
On to `CCOc1c(C(=O)O)cnn1-c1cccc(-c2cccc(C)c2OCc2ccc3c(c2)CCN(C2CC(C)(C)OC(C)(C)C2)C3)n1` [Compound 67], for which the solubility at 24 h reads like this: (pH 2.2, aqueous buffer) 90 µg/mL (≈ 144 µM); (pH 4.5, aqueous buffer) 76 µg/mL (≈ 122 µM); (pH 6.8, aqueous buffer) 78 µg/mL (≈ 125 µM).
For `CCOc1c(C(=O)O)cnn1-c1cccc(-c2cccc(C)c2OCc2ccc3c(c2)CCN(CC2CCOC2)C3)n1` (stereo not drawn) [Compound 68], in that order: 85 µg/mL (≈ 149 µM), 71 µg/mL (≈ 125 µM) and 74 µg/mL (≈ 130 µM).
Turning to `CCOc1c(C(=O)O)cnn1-c1cccc(-c2cccc(C)c2OCc2ccc3c(c2)CCN(CC2CCOCC2)C3)n1` [Compound 69], the solubility at 24 h by setting is: (pH 2.2, aqueous buffer) 91 µg/mL (≈ 156 µM); (pH 4.5, aqueous buffer) 77 µg/mL (≈ 132 µM); (pH 6.8, aqueous buffer) 80 µg/mL (≈ 137 µM).
For `CCOc1c(C(=O)O)cnn1-c1cccc(-c2cccc(C)c2OCc2ccc3c(c2)CCN(C(C)CS(C)(=O)=O)C3)n1` (stereo not drawn) [Compound 70], in that order: 86 µg/mL (≈ 142 µM), 57 µg/mL (≈ 94.3 µM) and 64 µg/mL (≈ 106 µM).
For `CCOc1c(C(=O)O)cnn1-c1cccc(-c2cccc(C)c2OCc2ccc3c(c2)CCN(C2CCOC2C)C3)n1` (stereo not drawn) [Compound 71], the solubility at 24 h by setting is: (pH 2.2, aqueous buffer) 94 µg/mL (≈ 165 µM); (pH 4.5, aqueous buffer) 75 µg/mL (≈ 132 µM); (pH 6.8, aqueous buffer) 78 µg/mL (≈ 137 µM).
In the same order, the values of `COc1c(C(=O)O)cnn1-c1cccc(-c2cccc(C)c2OCc2ccc3c(c2)CCN(CC2CC2(F)F)C3)n1` (stereo not drawn) [Compound 72, 1-(6-{2-[2-(2,2-difluoro-cyclopropylmethyl)-1,2,3,4-tetrahydro-isoquinolin-6-ylmethoxy]-3-methyl-phenyl}-pyridin-2-yl)-5-methoxy-1H-pyrazole-4-carboxylic acid] are 44 µg/mL (≈ 78.5 µM), 46 µg/mL (≈ 82.1 µM) and 67 µg/mL (≈ 120 µM).
For `COc1c(C(=O)O)cnn1-c1cccc(-c2cccc(C)c2OCc2ccc3c(c2)CCN(C2CC(C)(C)OC(C)(C)C2)C3)n1` [Compound 73], in that order: 86 µg/mL (≈ 141 µM), 67 µg/mL (≈ 110 µM) and 71 µg/mL (≈ 116 µM).
As to `COc1c(C(=O)O)cnn1-c1cccc(-c2cccc(C)c2OCc2ccc3c(c2)CCN(CCS(C)(=O)=O)C3)n1` [Compound 74], the solubility at 24 h amounted to 110 µg/mL (≈ 191 µM) (pH 2.2, aqueous buffer); 83 µg/mL (≈ 144 µM) (pH 4.5, aqueous buffer); 95 µg/mL (≈ 165 µM) (pH 6.8, aqueous buffer).
Turning to `COc1c(C(=O)O)cnn1-c1cccc(-c2cccc(C)c2OCc2ccc3c(c2)CCN(C2C4CCOC4C2(C)C)C3)n1` (stereo not drawn) [Compound 75], the solubility at 24 h turned out to be 120 µg/mL (≈ 202 µM) (pH 2.2, aqueous buffer); 93 µg/mL (≈ 156 µM) (pH 4.5, aqueous buffer); 90 µg/mL (≈ 151 µM) (pH 6.8, aqueous buffer).
For `CCOc1c(C(=O)O)cnn1-c1cccc(-c2cccc(C)c2OCc2ccc3c(c2)CCN(C2CCOCC2)C3)n1` [Compound 77], in that order: 96 µg/mL (≈ 169 µM), 83 µg/mL (≈ 146 µM) and 87 µg/mL (≈ 153 µM).
For `CCOc1c(C(=O)O)cnn1-c1cccc(-c2cccc(C)c2OCc2ccc3c(c2)CCN(C2CCOC(C)C2)C3)n1` (stereo not drawn) [Compound 78], in that order: 100 µg/mL (≈ 172 µM), 86 µg/mL (≈ 148 µM) and 89 µg/mL (≈ 153 µM).
In the same order, the values of `CCOc1c(C(=O)O)cnn1-c1cccc(-c2cccc(C)c2OCc2ccc3c(c2)CCN(C2CCOC(CC)C2)C3)n1` (stereo not drawn) [Compound 79] are 100 µg/mL (≈ 168 µM), 87 µg/mL (≈ 146 µM) and 89 µg/mL (≈ 149 µM).
Regarding `CCOc1c(C(=O)O)cnn1-c1cccc(-c2cccc(C)c2OCc2ccc3c(c2)CCN(CC2CCOC(C)(C)C2)C3)n1` (stereo not drawn) [Compound 80], the solubility at 24 h reads like this: (pH 2.2, aqueous buffer) 110 µg/mL (≈ 180 µM); (pH 4.5, aqueous buffer) 94 µg/mL (≈ 154 µM); (pH 6.8, aqueous buffer) 95 µg/mL (≈ 156 µM).
